Data: patent US20120015029A1, “DIRECT COMPRESSION FORMULATION AND PROCESS” (priority 2005, published 2012)

Tests used:
[1] = Water sorption/desorption isotherm (dynamic vapor sorption, DVS-1); conditions: 25° C., 85% RH
[2] = Pharmacokinetic drug-drug interaction study vildagliptin 100 mg qd and metformin 1000 mg qd in patients with type 2 diabetes; type: in vivo, human; conditions: type 2 diabetes patients, steady state, vildagliptin 100 mg qd FMI tablets alone or with metformin 1000 mg qd, 5 days
Experimental: Subjects are given an end-of-study evaluation on the last day of period 2 (Day 20). For all treatment periods, subjects fasted for a minimum of 10 hours pre-dose to 4 hours post-dose. Subjects are considered to have completed the study when all safety and pharmacokinetic evaluations have been completed.
The pharmacokinetic profiles are illustrated in FIG. 5.

With `N#C[C@@H]1CCCN1C(=O)CNC12CC3CC(CC(O)(C3)C1)C2` [Crystalline vildagliptin Form A, (S)-1-[(3-hydroxy-1-adamantyl)amino]acetyl-2-cyano-pyrrolidine] the hygroscopicity [1] was “only very slightly hygroscopic” and the moisture gain [1] was 0.9%.

With `N#C[C@@H]1CCCN1C(=O)CNC12CC3CC(CC(O)(C3)C1)C2` [vildagliptin amorphous form, (S)-1-[(3-hydroxy-1-adamantyl)amino]acetyl-2-cyano-pyrrolidine] the hygroscopicity [1] was “hygroscopic” and the moisture gain [1] was 4.2%.

Compound `N#C[C@@H]1CCCN1C(=O)CNC12CC3CC(CC(O)(C3)C1)C2` [vildagliptin, (S)-1-[(3-hydroxy-1-adamantyl)amino]acetyl-2-cyano-pyrrolidine] has a Tmax median [2] of 1.00 h.
